Assay results taken from US20070276134A1, “COMPOSITIONS AND METHODS FOR COMPLEXES OF NUCLEIC ACIDS AND ORGANIC CATIONS” (NASTECH PHARMACEUTICAL COMPANY INC., priority 2006, published 2007).

Assay: LogP determination in n-octanol and water, classical equilibrium partitioning method
Method: A LogP determination was performed on the salts in n-octanol and water using the classical equilibrium partitioning method. This was performed to evaluate the hydrophobic physical properties of the peptide and determine if there was a difference in the apparent hydrophobicity of the salt form of the siRNA versus the control of the sodium salt of siRNA.

| Substance | partitioning as a salt versus partitioning as the sodium salt siRNA complex of DOTAP (1-octanol) | LogP (n-octanol and water, salt form of siRNA) |
| --- | --- | --- |
| DOTAP | distinctly different |  |
| Sodium |  | −1.98 |
